Tests used:
Assay type in all cases: physicochemical
[1] = Particle size distribution (PSD) of crystalline dihydrate form and seeds, DMAC-water crystallization; details: for particle size d10 of seeds / particle size d50 of seeds / particle size d90 of seeds: seeds used in DMAC-water crystallization
[2] = Particle size analysis by laser diffraction (Malvern Mastersizer 3000, wet dispersion); details: volume distribution
Description: Particle size analysis of dihydrate vimseltinib drug substance samples was determined by laser diffraction using a Malvern Mastersizer 3000 instrument in a wet dispersion mode.
Prior to analysis, dihydrate drug substance samples were rotated and inverted in the sample container at least 10 times to ensure homogeneity. Between 20 and 25 mg of sample was weighed into a Malvern Glass tube. 20 mL of the Dispersant Solution (0.1% Span 85 in Isoparaffin G) was added and vortexed until a homogeneous suspension was obtained (˜30 s). The sample was then placed in a Vibra-Cell ultrasonic processor. The amplitude was set to the target of 30% (4 Watts) using an external probe (Vibra-Cell) during 90 sec.
After background measurement, the sample dispersion was slowly added to the dispersion unit of the instrument to achieve an obscuration level target of 5%. The sample was stirred at 3250 rpm for at least 1 minute to ensure dispersion and stabilization of the sample. After stabilization, the measurement was started and performed using a Malvern Mastersizer 3000 according to the method conditions provided in Table 17.

[3] = Hydration experiment: slurry of crystalline anhydrous form in deionized water, heat-cool cycles; details: 4-hour heat-cool cycles between 40° C. and room temperature for 72 hours
Description: In a hydration experiment, a slurry of the crystalline anhydrous form of the compound represented by Formula (I) and deionized water was subjected to successive 4-hour heat-cool cycles between 40° C. and room temperature for 72 hours.

[4] = Hydration of crystalline anhydrous form in low water activity solvents (XRPD); details: Ambient
Description: The hydration of the crystalline anhydrous form was studied using aqueous solvent systems with low water activity of 0.1. Slurries of the crystalline anhydrous form in the respective solvent were agitated for 6 days at room temperature. Aliquots of isolated materials were analyzed after 24, 48, and 144 hours of agitation. Table 12 summarizes the experiment conditions and isolated crystalline forms, as determined by XRPD.

[5] = Static storage stability of crystalline dihydrate and anhydrous forms (XRPD, DSC, KF weekly for four weeks)
Description: The stability of crystalline dihydrate and anhydrous forms of the compound represented by Formula (I) at varying relative humidity (RH) and temperature was investigated.
For example, the stability of crystalline dihydrate and anhydrous forms of the compound represented by Formula (I), as prepared according to Example 1 and Example 2, respectively, was studied under other conditions by placing aliquots of each form in static storage at conditions of 40° C./75% RH, 25° C./97% RH, 40° C./0% RH and 25° C./0% RH and analyzing the aliquots once weekly for four weeks using XRPD, DSC, and KF.

[6] = milled seeds of crystalline dihydrate form used in DMAC-water crystallization, listed as 3
[7] = jet-milled seed batch, crystallization 1 at 60° C. with 7% seeds, crystallization 2 at 64° C. with 5% seeds
[8] = listed as seeds of a smaller size
[9] = crystallization outputs using seeds of a smaller size (about 1/3/5 μm)
[10] = crystallized with milled seeds of about 3/6/12 μm, seeding about 65° C., about 3% seeds, laboratory and production scale

Cc1nc(-c2cnc(NC(C)C)n(C)c2=O)ccc1Oc1ccnc(-c2cnn(C)c2)c1.O.O [Lot 3]
Particle Size d10 [1, 6]: 3 microns | Particle Size d50 [1, 6]: 6 microns | Particle Size d90 [1, 6]: 12 microns | D(10) ([2]; listed as 3): 6 μm | D(50) ([2]; listed as 3): 17 μm | D(90) ([2]; listed as 3): 33 μm

Cc1nc(-c2cnc(NC(C)C)n(C)c2=O)ccc1Oc1ccnc(-c2cnn(C)c2)c1.O.O [Lot 4]
D(10) ([2]; listed as 4): 7 μm | D(50) ([2]; listed as 4): 19 μm | D(90) ([2]; listed as 4): 36 μm

Cc1nc(-c2cnc(NC(C)C)n(C)c2=O)ccc1Oc1ccnc(-c2cnn(C)c2)c1.O.O [Seed batch]
Particle Size d10 [1, 7]: 1.4 microns | Particle Size d50 [1, 7]: 2.7 microns | Particle Size d90 [1, 7]: 5.0 microns | particle size d10 of seeds [1, 8]: about 1 μm | particle size d50 of seeds [1, 8]: about 3 μm | particle size d90 of seeds [1, 8]: about 5 μm

Cc1nc(-c2cnc(NC(C)C)n(C)c2=O)ccc1Oc1ccnc(-c2cnn(C)c2)c1 [crystalline anhydrous form]
isolated solid form by XRPD [3]: crystalline dihydrate form | Observed Forms ([4]; Acetone/water (99:1), 24 h): Anhydrous | Observed Forms ([4]; Acetone/water (99:1), 144 h): Anhydrous | Observed Forms ([4]; MEK/water (99:1), 24 h): Anhydrous | Observed Forms ([4]; MEK/water (99:1), 144 h): Dihydrate | stability of the solid form on storage ([5]; all storage conditions (40° C./75% RH, 25° C./97% RH, 40° C./0% RH, 25° C./0% RH), after 4 weeks): remained stable

Cc1nc(-c2cnc(NC(C)C)n(C)c2=O)ccc1Oc1ccnc(-c2cnn(C)c2)c1.O.O [crystalline dihydrate form ground in a mortar and pestle]
XRPD ([5]; storage 40° C./0% RH, Week 1): Pattern 4 and the crystalline anhydrous form were observed

Cc1nc(-c2cnc(NC(C)C)n(C)c2=O)ccc1Oc1ccnc(-c2cnn(C)c2)c1.O.O [milled seeds]
particle size d10 of seeds [1]: about 3 μm | particle size d50 of seeds [1]: about 6 μm | particle size d90 of seeds [1]: about 12 μm

Cc1nc(-c2cnc(NC(C)C)n(C)c2=O)ccc1Oc1ccnc(-c2cnn(C)c2)c1.O.O [non-milled batch of crystalline dihydrate form of the compou]
particle size d10 of seeds [1]: about 5 μm | particle size d50 of seeds [1]: about 15 μm | particle size d90 of seeds [1]: about 36 μm

Cc1nc(-c2cnc(NC(C)C)n(C)c2=O)ccc1Oc1ccnc(-c2cnn(C)c2)c1 [vimseltinib]
Particle Size d10 [1, 9]: about 4 μm | Particle Size d50 [1, 9]: about 8 μm | Particle Size d90 [1, 9]: about 16 μm | Particle Size d10 [1, 10]: 6-8 μm | Particle Size d50 [1, 10]: 16-22 μm | Particle Size d90 [1, 10]: 33-40 μm

Reference: patent publication US12447149B2, “Formulations of vimseltinib” (Deciphera Pharmaceuticals, LLC, priority 2023, dated 2025)
